Source: patent US20230072860A1, “ISOXAZOLINE OXIME FORMATE COMPOUND, PREPARATION METHOD THEREFOR, HERBICIDAL COMPOSITION AND USE THEREOF” (QINGDAO KINGAGROOT CHEMICAL COMPOUND CO., LTD., priority 2020, published 2023)

Experiments:
Format in all cases: in vivo
[1] = system: Echinochloa crusgalli, Scirpus juncoides, Bidens tripartita L. and Sagittaria trifolia; assay: Weed control effect evaluation in rice field; settings: weeds collected from Heilongjiang Province of China
Method: Transplanted rice safety evaluation and weed control effect evaluation in rice field:
Rice field soil was loaded into a 1/1,000,000 ha pot. The seeds of Echinochloa crusgalli, Scirpus juncoides, and Bidens tripartita L. were sowed and gently covered with soil, then left to stand still in greenhouse in the state of 0.5-1 cm of water storage. The tuber of Sagittaria trifolia was planted in the next day or 2 days later. It was kept at 3-4 cm of water storage thereafter. The weeds were treated by dripping the WP or SC water diluents prepared according to the common preparation method of the compounds of the present invention with pipette homogeneously to achieve specified effective amount when Echinochloa crusgalli, Scirpus juncoides, and Bidens tripartita L. reached 0.5 leaf stage and Sagittaria trifolia reached the time point of primary leaf stage.
The fertility condition of Echinochloa crusgalli, Scirpus juncoides, Bidens tripartita L. and Sagittaria trifolia 14 days after the treatment of the compound of the invention and the fertility condition of rice 21 days after the treatment of the compound of the invention respectively with the naked eye. Evaluate the weed control effect with the above activity standard level. Many compounds show excellent activity and selectivity. […]

Leptochloa chinensis = assay: Experiment on weeding effect in post-emergence stage; settings: dose 15 g a.i./ha, fresh weight control rate level
How it was run: (§1)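 Post-emergence spray-tower treatment at 2-3 leaf stage, doses 500, 250, 125, 60, 15 g a.i./ha. Formulation: acetone solution plus Tween 80, methyl oleate EC synergist (1.5 liter/ha), diluted in water. Greenhouse pots; weed control counted 3 weeks post-application, mean of three repeats.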

Abutilon theophrasti = assay: as above; settings: dose 15 g a.i./ha, fresh weight control rate level
How it was run: as §1

Galium aparine = assay: as above; settings: dose 15 g a.i./ha, fresh weight control rate level
How it was run: as §1

Setaria viridis = assay: as above; settings: dose 15 g a.i./ha, fresh weight control rate level
How it was run: as §1

Veronica didyma Tenore = assay: as above; settings: dose 15 g a.i./ha, fresh weight control rate level
How it was run: as §1

Eleusine indica = assay: as above; settings: dose 15 g a.i./ha, fresh weight control rate level
How it was run: as §1

Echinochloa crusgalli = assay: as above; settings: dose 15 g a.i./ha, fresh weight control rate level
How it was run: as §1

Digitaria sanguinalis = assay: as above; settings: dose 15 g a.i./ha, fresh weight control rate level
How it was run: as §1

Amaranthus retroflexus = assay: as above; settings: dose 15 g a.i./ha, fresh weight control rate level
How it was run: as §1

SMILES	response of the test weeds to common doses [1]	weeding effect in post-emergence stage, Leptochloa chinensis (level) (Leptochloa chinensis)	weeding effect in post-emergence stage, Abutilon theophrasti (level) (Abutilon theophrasti)	weeding effect in post-emergence stage, Galium aparine (level) (Galium aparine)	weeding effect in post-emergence stage, Setaria viridis (level) (Setaria viridis)	weeding effect in post-emergence stage, Veronica didyma Tenore (level) (Veronica didyma Tenore)	weeding effect in post-emergence stage, Eleusine indica (level) (Eleusine indica)	weeding effect in post-emergence stage, Echinochloa crusgalli (level) (Echinochloa crusgalli)	weeding effect in post-emergence stage, Digitaria sanguinalis (level) (Digitaria sanguinalis)	weeding effect in post-emergence stage, Amaranthus retroflexus (level) (Amaranthus retroflexus)
CCOC(=O)c1cnn(C)c1S(=O)(=O)NC(=O)Nc1nc(OC)cc(OC)n1 [Pyrazosulfuron-ethyl]	resistant	–	–	–	–	–	–	–	–	–
CC/C(C)=N/OC(=O)C1(C)CC(c2cc(-n3c(=O)n(C)c(=S)n(C)c3=S)c(F)cc2Cl)=NO1 (stereo not shown) [Compound 57]	–	5 (Level 5: growth control rate is above 85%)	5 (Level 5: growth control rate is above 85%)	5 (Level 5: growth control rate is above 85%)	5 (Level 5: growth control rate is above 85%)	5 (Level 5: growth control rate is above 85%)	5 (Level 5: growth control rate is above 85%)	5 (Level 5: growth control rate is above 85%)	5 (Level 5: growth control rate is above 85%)	5 (Level 5: growth control rate is above 85%)
CC(C)=NOC(=O)C1(C)CC(c2cc(-n3c(=O)cc(C(F)(F)F)n(C)c3=O)c(F)cc2Cl)=NO1 (stereo not shown) [Compound 160]	–	5 (Level 5: growth control rate is above 85%)	5 (Level 5: growth control rate is above 85%)	5 (Level 5: growth control rate is above 85%)	5 (Level 5: growth control rate is above 85%)	5 (Level 5: growth control rate is above 85%)	5 (Level 5: growth control rate is above 85%)	5 (Level 5: growth control rate is above 85%)	5 (Level 5: growth control rate is above 85%)	5 (Level 5: growth control rate is above 85%)
